{"source": "PubChem BioAssay AID1259409", "about": "(Chemical Carcinogenesis Research Information System (CCRIS), 2018)", "origin": "cited, not measured here", "system": "rodent chemically induced tumor inhibition, incidence and multiplicity", "assay": "CCRIS tumor inhibitor studies", "conditions": "Route [Inhibitor]: ORAL, Promoter: NONE USED", "data": [{"smiles": "CC1=C(/C=C/C(C)=C/C=C/C(C)=C\\C(=O)O)C(C)(C)CCC1", "values": [{"measurement": "tumour outcome (control, treated, inhibition, significance)", "setting": "Carcinogen: N-METHYL-N-NITROSOUREA, 684-93-5, Dose [Inhibitor]: 128 MG/KG DIET DAILY FOR 55 WK STARTING 1 WK AFTER LAST CARCINOGEN EXPOSURE (STUDY DURATION: 65 WK), Species: HAMSTER, Strain/Sex: SYRIAN/MALE, Target Tissue: Type of Lesion: TRACHEA: TUMOR, Dose [Carcinogen]: 1% FOR 7 SECONDS 2/WK FOR 9 WK", "result": "30/37 (81%), 26/34 (76%), 6%, not significant"}, {"measurement": "tumour outcome (control, treated, inhibition, significance)", "setting": "Carcinogen: N-METHYL-N-NITROSOUREA, 684-93-5, Dose [Inhibitor]: 172 MG/KG DIET DAILY FOR 55 WK STARTING 1 WK AFTER LAST CARCINOGEN EXPOSURE (STUDY DURATION: 67.5 WK), Species: HAMSTER, Strain/Sex: SYRIAN/MALE, Target Tissue: Type of Lesion: TRACHEA: TUMORS, Dose [Carcinogen]: 1% FOR 7 SECONDS 2/WK FOR 11.5 WK", "result": "24/40 (60%), 24/40 (60%), 0%, not significant"}, {"measurement": "tumour outcome (control, treated, inhibition, significance)", "setting": "Carcinogen: N-METHYL-N-NITROSOUREA, 684-93-5, Dose [Inhibitor]: 240 MG/KG OF DIET DAILY STARTING 5 D AFTER FINAL CARCINOGEN TREATMENT AND CONTINUING THROUGH END OF STUDY (STUDY DURATIO, Species: RAT, Strain/Sex: F344/MALE, Target Tissue: Type of Lesion: COLON: INVASIVE TUBULOPAPILLARY ADENOCARCINOMA, Dose [Carcinogen]: 0.5 MG 2/WK FOR 8 WK", "result": "33%, 27%, 18%, not significant"}, {"measurement": "tumour outcome (control, treated, inhibition, significance)", "setting": "Carcinogen: N-METHYL-N-NITROSOUREA, 684-93-5, Dose [Inhibitor]: 240 MG/KG OF DIET DAILY STARTING 5 D AFTER FINAL CARCINOGEN TREATMENT AND CONTINUING THROUGH END OF STUDY (STUDY DURATIO, Species: RAT, Strain/Sex: F344/MALE, Target Tissue: Type of Lesion: COLON: INVASIVE TUBULOPAPILLARY ADENOCARCINOMA, Dose [Carcinogen]: 1 MG 2/WK FOR 8 WK", "result": "80%, 90%, -13%, not significant"}, {"measurement": "tumour outcome (control, treated, inhibition, significance)", "setting": "Carcinogen: N-METHYL-N-NITROSOUREA, 684-93-5, Dose [Inhibitor]: 240 MG/KG OF DIET DAILY STARTING 5 D AFTER FINAL CARCINOGEN TREATMENT AND CONTINUING THROUGH END OF STUDY (STUDY DURATIO, Species: RAT, Strain/Sex: F344/MALE, Target Tissue: Type of Lesion: COLON: INVASIVE TUBULOPAPILLARY ADENOCARCINOMA, Dose [Carcinogen]: 2 MG 2/WK FOR 8 WK", "result": "95%, 100%, -5%, not significant"}, {"measurement": "tumour outcome (control, treated, inhibition, significance)", "setting": "Carcinogen: N-NITROBIS(2-OXOPROPYL)AMINE, 60559-38-4, Dose [Inhibitor]: 0.4 MMOL/KG/D IN DIET STARTING 1 WK AFTER CARCINOGEN TREATMENT AND CONTINUING THROUGH THE END OF THE STUDY (STUDY DURATI, Species: HAMSTER, Strain/Sex: SYRIAN/FEMALE, Target Tissue: Type of Lesion: LIVER: BENIGN TUMOR, Dose [Carcinogen]: 40 MG/KG BW ONCE", "result": "4/20 (20%), 10/15 (67%), -235%, p<0.05"}, {"measurement": "tumour outcome (control, treated, inhibition, significance)", "setting": "Carcinogen: N-NITROBIS(2-OXOPROPYL)AMINE, 60559-38-4, Dose [Inhibitor]: 0.4 MMOL/KG/D IN DIET STARTING 1 WK AFTER CARCINOGEN TREATMENT AND CONTINUING THROUGH THE END OF THE STUDY (STUDY DURATI, Species: HAMSTER, Strain/Sex: SYRIAN/FEMALE, Target Tissue: Type of Lesion: PANCREAS: DUCTULAR ADENOMA, Dose [Carcinogen]: 40 MG/KG BW ONCE", "result": "12/20 (60%), 7/14 (50%), 17%, not significant"}, {"measurement": "tumour outcome (control, treated, inhibition, significance)", "setting": "Carcinogen: N-NITROBIS(2-OXOPROPYL)AMINE, 60559-38-4, Dose [Inhibitor]: 0.4 MMOL/KG/D IN DIET STARTING 1 WK AFTER CARCINOGEN TREATMENT AND CONTINUING THROUGH THE END OF THE STUDY (STUDY DURATI, Species: HAMSTER, Strain/Sex: SYRIAN/FEMALE, Target Tissue: Type of Lesion: PANCREAS: DUCTULAR CARCINOMA, Dose [Carcinogen]: 40 MG/KG BW ONCE", "result": "6/20 (30%), 9/14 (64%), -113%, not significant"}, {"measurement": "tumour outcome (control, treated, inhibition, significance)", "setting": "Carcinogen: N-NITROBIS(2-OXOPROPYL)AMINE, 60559-38-4, Dose [Inhibitor]: 0.4 MMOL/KG/D IN DIET STARTING 1 WK AFTER CARCINOGEN TREATMENT AND CONTINUING THROUGH THE END OF THE STUDY (STUDY DURATI, Species: HAMSTER, Strain/Sex: SYRIAN/MALE, Target Tissue: Type of Lesion: PANCREAS: DUCTULAR CARCINOMA, Dose [Carcinogen]: 40 MG/KG BW ONCE", "result": "5/24 (21%), 9/24 (38%), -81%, not significant"}, {"measurement": "tumour outcome (control, treated, inhibition, significance)", "setting": "Carcinogen: N-NITROBIS(2-OXOPROPYL)AMINE, 60559-38-4, Dose [Inhibitor]: 0.4 OR 0.8 MMOL/KG DIET DAILY STARTING 1 WK AFTER CARCINOGEN TREATMENT AND CONTINUING THROUGH THE END OF THE STUDY (STUD, Species: HAMSTER, Strain/Sex: SYRIAN/FEMALE, Target Tissue: Type of Lesion: LIVER: BENIGN TUMOR, Dose [Carcinogen]: 40 MG/KG BW ONCE", "result": "4/20 (20%), 10/15 (67%), -235%, p<0.05"}, {"measurement": "tumour outcome (control, treated, inhibition, significance)", "setting": "Carcinogen: N-NITROBIS(2-OXOPROPYL)AMINE, 60559-38-4, Dose [Inhibitor]: 0.4 OR 0.8 MMOL/KG DIET DAILY STARTING 1 WK AFTER CARCINOGEN TREATMENT AND CONTINUING THROUGH THE END OF THE STUDY (STUD, Species: HAMSTER, Strain/Sex: SYRIAN/FEMALE, Target Tissue: Type of Lesion: PANCREAS: DUCTULAR ADENOMA, Dose [Carcinogen]: 10 MG/KG BW ONCE", "result": "5/23 (22%), 9/23 (39%), -77%, not significant"}]}]}
